Results as given in the NIST ThermoML archive (doi:10.1016/j.jct.2004.12.014).

How the values were obtained:
[1] = xn = mol fraction of the nth substance listed; settings: 318.15 K, 101 kPa, Liquid
[2] = excess molar enthalpy (molar enthalpy of mixing); xn = mol fraction of the nth substance listed; settings: 318.15 K, 101 kPa, Liquid

CCCCCCCCCCCCC [tridecane] + CCC(=O)OC
Settings	excess molar enthalpy [kcal/mol]	excess molar volume [m3/mol]
[1], x2 = 0.0687	–	3.33e-07
[1], x2 = 0.1431	–	6.43e-07
[1], x2 = 0.2538	–	1.057e-06
[1], x2 = 0.3537	–	1.323e-06
[1], x2 = 0.4366	–	1.462e-06
[1], x2 = 0.5144	–	1.543e-06
[1], x2 = 0.5811	–	1.548e-06
[1], x2 = 0.6387	–	1.514e-06
[1], x2 = 0.6932	–	1.429e-06
[1], x2 = 0.7403	–	1.32e-06
[1], x2 = 0.7836	–	1.217e-06
[1], x2 = 0.8229	–	1.075e-06
[1], x2 = 0.8583	–	9.26e-07
[1], x2 = 0.8914	–	7.83e-07
[1], x2 = 0.9212	–	6.29e-07
[1], x2 = 0.9596	–	4.05e-07
[1], x2 = 0.9748	–	2.5e-07
[2], x2 = 0.1102	0.152	–
[2], x2 = 0.2079	0.264	–
[2], x2 = 0.298	0.349	–
[2], x2 = 0.3751	0.407	–
[2], x2 = 0.4404	0.44	–
[2], x2 = 0.4912	0.457	–
[2], x2 = 0.5388	0.465	–
[2], x2 = 0.5843	0.466	–
[2], x2 = 0.624	0.459	–
[2], x2 = 0.6309	0.456	–
[2], x2 = 0.6687	0.44	–
[2], x2 = 0.7093	0.414	–
[2], x2 = 0.7493	0.382	–
[2], x2 = 0.7925	0.336	–
[2], x2 = 0.8368	0.283	–
[2], x2 = 0.8813	0.224	–
[2], x2 = 0.9269	0.152	–
[2], x2 = 0.9664	0.0759	–

CCCCCCCCCCCCCCC [pentadecane] + CCCCOC(=O)CC
Settings	excess molar enthalpy [kcal/mol]	excess molar volume [m3/mol]
[1], x2 = 0.0505	–	1.65e-07
[1], x2 = 0.0965	–	3.01e-07
[1], x2 = 0.197	–	5.5e-07
[1], x2 = 0.2885	–	7.14e-07
[1], x2 = 0.372	–	8.22e-07
[1], x2 = 0.4383	–	8.58e-07
[1], x2 = 0.5036	–	8.89e-07
[1], x2 = 0.5649	–	8.8e-07
[1], x2 = 0.6245	–	8.56e-07
[1], x2 = 0.6765	–	8.1e-07
[1], x2 = 0.7278	–	7.63e-07
[1], x2 = 0.7734	–	6.88e-07
[1], x2 = 0.817	–	5.89e-07
[1], x2 = 0.8567	–	4.91e-07
[1], x2 = 0.897	–	3.82e-07
[1], x2 = 0.9328	–	2.79e-07
[1], x2 = 0.9665	–	1.56e-07
[2], x2 = 0.0761	0.0789	–
[2], x2 = 0.1691	0.151	–
[2], x2 = 0.2538	0.211	–
[2], x2 = 0.3371	0.253	–
[2], x2 = 0.4082	0.279	–
[2], x2 = 0.4663	0.291	–
[2], x2 = 0.5154	0.294	–
[2], x2 = 0.5563	0.292	–
[2], x2 = 0.5938	0.288	–
[2], x2 = 0.6011	0.287	–
[2], x2 = 0.6427	0.276	–
[2], x2 = 0.6861	0.262	–
[2], x2 = 0.7321	0.242	–
[2], x2 = 0.7784	0.215	–
[2], x2 = 0.8262	0.18	–
[2], x2 = 0.8732	0.142	–
[2], x2 = 0.9184	0.0978	–
[2], x2 = 0.9612	0.0508	–

CCCOC(=O)CC [propyl propanoate] + CCCCCCC
Settings	excess molar enthalpy [kcal/mol]	excess molar volume [m3/mol]
[1], x1 = 0.0283	–	9e-08
[1], x1 = 0.066	–	2.02e-07
[1], x1 = 0.1305	–	3.13e-07
[1], x1 = 0.1912	–	4.11e-07
[1], x1 = 0.2529	–	4.97e-07
[1], x1 = 0.3157	–	5.6e-07
[1], x1 = 0.3768	–	5.86e-07
[1], x1 = 0.437	–	6.03e-07
[1], x1 = 0.4973	–	6.01e-07
[1], x1 = 0.5557	–	5.81e-07
[1], x1 = 0.6132	–	5.43e-07
[1], x1 = 0.6703	–	4.91e-07
[1], x1 = 0.7248	–	4.24e-07
[1], x1 = 0.7801	–	3.67e-07
[1], x1 = 0.8355	–	2.94e-07
[1], x1 = 0.8887	–	2.07e-07
[1], x1 = 0.9444	–	1.24e-07
[2], x1 = 0.0639	0.0623	–
[2], x1 = 0.1325	0.109	–
[2], x1 = 0.2009	0.149	–
[2], x1 = 0.273	0.179	–
[2], x1 = 0.338	0.198	–
[2], x1 = 0.3985	0.208	–
[2], x1 = 0.4549	0.215	–
[2], x1 = 0.5052	0.218	–
[2], x1 = 0.5147	0.218	–
[2], x1 = 0.5577	0.214	–
[2], x1 = 0.6066	0.207	–
[2], x1 = 0.6615	0.194	–
[2], x1 = 0.7197	0.173	–
[2], x1 = 0.7781	0.147	–
[2], x1 = 0.8381	0.115	–
[2], x1 = 0.8975	0.0783	–
[2], x1 = 0.9534	0.0399	–
